Assay results from US11925629B2, “Heterocyclic inhibitors of ERK1 and ERK2 and their use in the treatment of cancer” (Asana Biosciences, LLC, priority 2015, dated 2024).
Read-outs that look alike come from different tables or passages of the source.

Key:
[1] = system: phospho-RSK (the downstream target of ERK1/2); assay: Pharmacodynamic assay, phospho-RSK in A375 tumor samples; assay type: in vivo, mice; settings: Mus musculus, A-375; A375 tumor samples harvested at 1 h after dosing at 50 mg/kg PO, compared to vehicle control
Method: (§1) Foxn1 nu/nu strain of female mice (obtained from Charles River Laboratories, USA), 8-10 weeks of age, body weight range 23-25 g, were used for the tumor xenograft efficacy studies. Human cancer cell lines (such as melanoma A375, colorectal HT29, pancreatic BxPC3, colorectal HCT116, and lung A549) were first grown in vitro, and then about five million (5×10^6) of these cells in 100 μL of serum free medium were mixed with an equal amount of matrigel, and the entire mixture was injected subcutaneously at the right flank region of mice. The tumors were measured with Vernier calipers periodically after the first week of injection. When the tumor volume reached 120-150 mm^3 (about 3-4 weeks after injection) the animals were randomized into different groups so that their tumor volume was approximately the same in all groups.
For PO dosing, the compounds were prepared in a formulation containing 0.5% Methyl cellulose and 0.01% Tween 80. For IV, SC, or IP dosing, the compounds were prepared in 6% solutol-ethanol (1:1), 6% DMSO and 88% saline. Animals were dosed with compounds prepared in specific formulations via PO, IP or SC route either QD or BID at the required doses. Tumors size and body weights were measured twice or thrice in a week. Tumors were harvested at the end of the study after euthanizing the animals according to approved protocols. […]

[2] = system: human melanoma xenograft model (A375) harboring B-RAF V600E mutation; assay: A375 human melanoma xenograft model, tumor growth inhibition; assay type: in vivo, mice; settings: 50 mg/kg BID orally for 19 days
Method: as §1, with “When the tumor volume reached 120-150 mm^3 (about 3-4 weeks after injection) the animals were randomized into different groups so that their tumor volume was approximately the same in all groups.” left out
For PO dosing, the compounds were prepared in a formulation containing 0.5% Methyl cellulose and 0.01% Tween 80. […] Tumors size and body weights were measured twice or thrice in a week. […]
Changes in tumor volume (Δ volumes) for each treated (T) and control (C) group were calculated by subtracting the mean tumor volume on the first day of treatment (starting day) from the mean tumor volume on the specified observation day. […] Percentage tumor growth inhibition was calculated as [100−% T/C]. Percentage body weight change was calculated as [(Body weight on specified observation day−Body weight on starting day)/Body weight on starting day]×100. […]

[3] = system: HT-29 (colorectal carcinoma, B-RafV600E) cells; assay: Cell proliferation (Alamar Blue) assay, HT-29; assay type: cell-based, human; settings: Homo sapiens, HT-29, HT29 cells
In short: (§2)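 After overnight plating (16-24 h), cells were treated for 72 h with compound dilutions spanning roughly 0.0005 to 10 uM. Proliferation was measured by Alamar Blue fluorescence and IC50 values derived from variable-slope dose-response curves.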

[4] = system: phosphorylation of RSK1(S380) (the downstream target of ERK1/2); assay: Phospho-RSK1(S380) ELISA assay in HT-29 cells; assay type: cell-based, human; settings: Homo sapiens, HT-29, HT29 cells, read-out: Mechanistic Cell Assay RSK1 Phos HT29 IC50
In short: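 HT-29 colorectal carcinoma cells (B-RafV600E), plated overnight at 37° C./5% CO2, were treated with compound dilutions for 2 h. Lysates were analysed by phospho-RSK1(Ser380) sandwich ELISA with absorbance at 450 nm. IC50 came from a sigmoidal variable-slope dose-response fit.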

[5] = system: HCT116 (colorectal carcinoma, K Ras G13D) cells; assay: Cell proliferation (Alamar Blue) assay, HCT116; assay type: cell-based, human; settings: Homo sapiens, HCT-116, HCT116 cells
In short: as §2

ERK1 = biological target: T1, ERK1 (Homo sapiens, UniProt P27361); assay: ERK1 HTRF (biochemical) assay; settings: HTRF
T1 construct: purchased Jubilant Biosys
Method: (§3) ERK1 and ERK2 HTRF (Biochemical) Assays
These assays employed a homogeneous time resolved fluorescence (HTRF) technique. […] The plate was incubated at room temperature for 60 min with shaking. […] The IC50 values (half maximal inhibitory concentration values) were subsequently determined using a sigmoidal dose-response curve (variable slope) in GraphPad Prism® 5 software.

ERK2 = biological target: T2, ERK2 (Homo sapiens, UniProt P28482); assay: ERK2 HTRF (biochemical) assay; settings: HTRF
T2 construct: purchased Jubilant Biosys
Method: as §3
These assays employed a homogeneous time resolved fluorescence (HTRF) technique. The compounds were serially diluted by half-log with concentrations ranging from 0.0005 to 10 uM in the assay buffer (50 mM Tris pH=7.5, 1 mM EGTA, 2 mM DTT, 10 mM MgCl2, 0.100 Tween-20) and 20 uL of substrate-ATP mix [1 uM Biotin-LC-Myelin Basic Protein (MBP) derivatized Peptide (Anaspec)-24 uM ATP (Sigma)] was added to each well of the assay plate. Then 10 uL of enzyme mix [25 nM ERK1 or ERK2 (Jubilant Biosys) in assay buffer] was added to each well. The plate was incubated at room temperature for 60 min with shaking. The HTRF mix [625 nM LANCER Ultra Europium-anti-phospho-MBP (Perkin Elmer) and 2 nM Phycolink® Streptavidin-Allophycocyanin (SA-APC) (Prozyme) in HTRF buffer (50 mM Tris-HCl pH=7.5, 100 mM NaCl, 0.1% BSA, 0.05% Tween20, 0.5 mM EDTA)] was prepared and 75 uL of this mix was added to the HTRF plate. After incubation for 60 min at room temperature, 10 uL of the reaction mixture was transferred to the HTRF assay plate and incubated for 45 min at room temperature with shaking. Plate was read using Pherastar in HTRF mode (excitation 337 nm, emission 665 & 620 nm). The IC50 values (half maximal inhibitory concentration values) were subsequently determined using a sigmoidal dose-response curve (variable slope) in GraphPad Prism® 5 software.

T2 sequence (P28482 whole entry): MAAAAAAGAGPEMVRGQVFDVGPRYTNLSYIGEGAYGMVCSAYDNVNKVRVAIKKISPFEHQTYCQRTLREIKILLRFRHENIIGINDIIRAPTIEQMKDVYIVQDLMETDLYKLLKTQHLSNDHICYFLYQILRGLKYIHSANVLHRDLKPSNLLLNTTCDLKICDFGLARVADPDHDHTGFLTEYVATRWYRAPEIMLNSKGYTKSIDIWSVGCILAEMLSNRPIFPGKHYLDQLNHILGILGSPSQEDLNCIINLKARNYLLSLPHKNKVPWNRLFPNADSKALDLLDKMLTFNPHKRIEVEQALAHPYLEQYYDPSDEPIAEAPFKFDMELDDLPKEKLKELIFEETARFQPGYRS
T1 sequence (P27361 whole entry): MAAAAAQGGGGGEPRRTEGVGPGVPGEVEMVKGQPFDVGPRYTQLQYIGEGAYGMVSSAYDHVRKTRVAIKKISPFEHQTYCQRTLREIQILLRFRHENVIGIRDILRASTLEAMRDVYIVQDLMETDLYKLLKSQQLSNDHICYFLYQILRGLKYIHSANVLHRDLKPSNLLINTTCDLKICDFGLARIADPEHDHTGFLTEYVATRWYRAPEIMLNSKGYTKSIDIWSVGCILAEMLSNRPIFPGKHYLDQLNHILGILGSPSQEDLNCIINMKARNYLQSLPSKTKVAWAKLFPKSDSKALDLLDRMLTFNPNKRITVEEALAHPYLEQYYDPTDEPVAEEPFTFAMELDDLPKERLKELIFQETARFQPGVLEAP

| IC50 [3] [nM] | IC50 ([4]; phospho-RSK1(S380)) [nM] | IC50 [5] [nM] | IC50 (ERK1) [nM] | IC50 (ERK2) [nM] | IC50 [4] [nM] | SMILES | inhibition at 50 mg/kg [1] [%] | body weight loss [2] |
| --- | --- | --- | --- | --- | --- | --- | --- | --- |
| > 2500 |  | > 2500 | < 50 | ≤ 50 | 500 to 2500 | Cc1cnc(N[C@H]2CCOC2)nc1-n1cnc(C(=O)NCc2ccc(Cl)c(F)c2)c1 [Example 324, (S)-N-(4-chloro-3-fluorobenzyl)-1-(5-methyl-2-((tetrahydrofuran-3-yl)amino)pyrimidin-4-yl)-1H-imidazole-4-carboxamide] |  |  |
| 500 to 2500 |  | > 2500 | < 50 | ≤ 50 | 100 to 250 | Cc1cnc(N[C@H]2CCOC2)nc1-n1cnc(C(=O)NCc2cccc(C(C)(C)C)c2)c1 [Example 327, (S)-1-(5-methyl-2-((tetrahydrofuran-3-yl)amino)pyrimidin-4-yl)-N-(3-tert-butylbenzyl)-1H-imidazole-4-carboxamide] |  |  |

More lines, now with the values behind:

| SMILES | IC50 [3] [nM] | IC50 ([4]; phospho-RSK1(S380)) [nM] | IC50 [5] [nM] | IC50 (ERK1) [nM] | IC50 (ERK2) [nM] | IC50 [4] [nM] | inhibition at 50 mg/kg [1] [%] | body weight loss [2] |
| --- | --- | --- | --- | --- | --- | --- | --- | --- |
| Cc1cnc(NC2CCOCC2)nc1-n1cnc(C(=O)NC(CO)c2cccc(Cl)c2)c1 (stereo not shown) [Example 201] |  |  |  |  |  |  | ~66 |  |
| Cc1cnc(NC2CCOCC2)nc1-n1cnc(C(=O)N[C@H](CO)c2cccc(Cl)c2)c1 [Example 211] |  |  |  |  |  |  | ~84 |  |
| Cc1cnc(N[C@H]2CCOC2)nc1-n1cnc(C(=O)N[C@H](CN)c2cccc(Cl)c2)c1 [Example 255, N-((S)-2-amino-1-(3-chlorophenyl)ethyl)-1-(5-methyl-2-(((S)-tetrahydrofuran-3-yl)amino)pyrimidin-4-yl)-1H-imidazole-4-carboxamide] | ≤ 100 | ≤ 100 | ≤ 100 |  |  |  |  | no significant body weight loss |
